Assay results from patent US20240270695A1, “COMPOUNDS, COMPOSITIONS AND METHODS OF TREATING DISORDERS” (Chengdu Anticancer Bioscience LTD, priority 2021, published 2024).

Columns and labels:
[1] = test system: RPE-Neo or RPE-MYC or RPE-MYC expressing an EGFP-Histone 2B fusion protein; assay: MTT assays of cellular proliferation; format: cell-based; settings: Homo sapiens, min. effective conc., read-out: Proliferative arrest (<50%)
[2] = test system: RPE-Neo or RPE-MYC or RPE-MYC expressing an EGFP-Histone 2B fusion protein; assay: Phenotypic screening assay (arrest in mitosis, change in DNA content, cell death; GE IN-Cell Analyzer 2000); format: cell-based; settings: Homo sapiens, compounds 20 nM to 20 μM, 24, 48 or 72 hours

Measured: minimal effective concentration

COc1ccc2c(c1)N(Cc1ccc(C)c(F)c1)C(=O)CC(C(=O)C1CC1)=C2O [Example 141, 4-(cyclopropanecarbonyl)-1-(3-fluoro-4-methylbenzyl)-5-hydroxy-8-methoxy-1,3-dihydro-2H-benzo[b]azepin-2-one]
0.001 to 1 µM: [1] | [2]; read-out: Min. Effective conc. for Polyploidy (≥10%) | [2]; min. effective conc., read-out: Cell Death (>30%) | [2]; min. effective conc., read-out: Mitotic Arrest (≥10%)
